Structures can show the parent of a compound that is named as a salt.
Legend:
[1] = Thermal stability of polymorph form on heating at 60-70° C., examined by XRPD; assay type: physicochemical; settings: for Polymorph form detected after heating: oil bath 60-70° C., XRPD
[2] = Polymorph stability under accelerated stress conditions (40±2° C., 75±5% RH), by XRD; assay type: physicochemical; settings: accelerated high humidity stress conditions

Cc1cn(-c2cc(NC(=O)c3ccc(C)c(Nc4nccc(-c5cccnc5)n4)c3)cc(C(F)(F)F)c2)cn1 [Nilotinib hydrochloride]
Stability to heat ([1]; 70° C./40 hours): stable to heat
Polymorph form detected after heating ([1]; time of heating 10 hours): XRD pattern unchanged
Polymorph form detected after heating ([1]; time of heating 20 hours): XRD pattern unchanged
Polymorph form detected after heating ([1]; time of heating 30 hours): XRD pattern unchanged
Polymorph form detected after heating ([1]; time of heating 40 hours): XRD pattern unchanged
XRD spectra after storage [2]: essentially the same and unchanged
Hygroscopicity (40° C./75% RH): non-hygroscopic
Final moisture content after 60 days 40° C. at humidity of 75% (60 days, 40° C./75% RH, karl-fischer): 5.2%
Initial moisture Content (%) (before storage, karl-fischer): 5.26%
